The text below walks through data of ChEMBL document CHEMBL5512612, “Novel small molecule inhibitors targeting renal cell carcinoma: Status, challenges, future directions” (Eur J Med Chem, 2024).

A value given as a limit tells only on which side of the number the result lay.

Test [1] relates to A498. Description: Antiproliferative activity against human A498 cells. Format: functional, cell-based.
The subject of test [2] is 786-0. Put plainly: Antiproliferative activity against human 786-0 cells. Format: functional, cell-based.
The test system of test [3] is ACHN. Description: Induction of TRAIL induced apoptosis in human ACHN cells assessed as reduction in cFLIP level. Format: functional, cell-based.
The target in test [4] is Vascular endothelial growth factor receptor 2 (Homo sapiens, UniProt P35968). Put plainly: Inhibition of VEGFR2 (unknown origin) by Kinase-Glo max reagent based assay.
Chain of Vascular endothelial growth factor receptor 2 (P35968 whole entry): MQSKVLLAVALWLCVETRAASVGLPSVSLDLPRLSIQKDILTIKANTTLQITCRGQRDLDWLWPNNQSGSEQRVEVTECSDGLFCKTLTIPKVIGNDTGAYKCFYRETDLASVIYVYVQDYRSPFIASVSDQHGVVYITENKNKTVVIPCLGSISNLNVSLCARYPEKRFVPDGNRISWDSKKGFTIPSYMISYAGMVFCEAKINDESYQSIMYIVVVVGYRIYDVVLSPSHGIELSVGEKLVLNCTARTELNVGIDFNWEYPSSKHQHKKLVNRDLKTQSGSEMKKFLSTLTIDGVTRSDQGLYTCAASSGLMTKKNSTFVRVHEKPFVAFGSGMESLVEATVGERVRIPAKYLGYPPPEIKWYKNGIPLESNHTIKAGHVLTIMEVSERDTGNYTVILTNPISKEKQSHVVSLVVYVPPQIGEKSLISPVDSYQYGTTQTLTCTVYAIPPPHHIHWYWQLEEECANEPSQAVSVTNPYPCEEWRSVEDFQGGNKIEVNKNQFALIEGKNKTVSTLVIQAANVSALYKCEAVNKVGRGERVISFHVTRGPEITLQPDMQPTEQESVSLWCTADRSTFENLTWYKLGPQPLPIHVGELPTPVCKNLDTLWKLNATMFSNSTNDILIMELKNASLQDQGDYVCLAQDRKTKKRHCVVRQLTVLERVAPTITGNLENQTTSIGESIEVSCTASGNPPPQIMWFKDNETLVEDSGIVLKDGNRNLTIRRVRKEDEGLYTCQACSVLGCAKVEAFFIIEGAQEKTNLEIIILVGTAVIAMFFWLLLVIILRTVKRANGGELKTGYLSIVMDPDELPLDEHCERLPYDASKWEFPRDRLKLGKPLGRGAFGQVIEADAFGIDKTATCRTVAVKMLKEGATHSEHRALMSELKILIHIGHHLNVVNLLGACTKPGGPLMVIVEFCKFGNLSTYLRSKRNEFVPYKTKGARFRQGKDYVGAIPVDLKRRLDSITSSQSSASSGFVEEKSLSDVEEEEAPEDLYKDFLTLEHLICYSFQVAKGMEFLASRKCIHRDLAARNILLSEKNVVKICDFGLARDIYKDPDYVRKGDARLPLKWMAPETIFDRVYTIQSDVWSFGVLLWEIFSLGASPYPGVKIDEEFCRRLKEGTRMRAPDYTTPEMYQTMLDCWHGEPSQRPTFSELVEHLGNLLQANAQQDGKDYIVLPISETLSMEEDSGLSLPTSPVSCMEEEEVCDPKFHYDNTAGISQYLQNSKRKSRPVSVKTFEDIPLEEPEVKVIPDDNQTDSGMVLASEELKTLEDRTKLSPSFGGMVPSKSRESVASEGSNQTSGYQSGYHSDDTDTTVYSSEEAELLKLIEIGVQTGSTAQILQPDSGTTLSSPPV
For test [5], the system named is A498. Put plainly: Cytotoxicity against human A498 cells incubated for 48 hrs by MTT assay. Format: functional, cell-based. Conditions: A498, 48 h.
Test [6] has as its system CAKI-1. Description: Cytotoxicity against human CAKI-1 cells incubated for 48 hrs by MTT assay. Particulars: CAKI-1, 48 h. Format: functional, cell-based.

As to `O=C(Nc1ccc([N+](=O)[O-])cc1O)Nc1ccccc1Br`, the figures for the IC50 in test [1] and in test [2] were 70 µM and 100 µM, respectively.

Take `CC(=O)OC[C@]12CC[C@H]3[C@@H](C[C@H]4O[C@]45CC=CC(=O)[C@]35C)[C@]1(O)CC[C@@]2(O)[C@@](C)(O)[C@H]1CC(C)=C(C)C(=O)O1`: the IC50 in test [3] was 0.117 µM. On to `Cc1ccc(/C=N/n2c(-c3cc4ccccc4[nH]3)n[nH]c2=S)cc1`, for which the IC50 in test [4] came to 0.034 µM. As for `O=C(Nc1cccc(Cl)c1)Nc1nc2ccc([N+](=O)[O-])cc2s1`, the 50% inhibitory concentration (IC50) in test [1] is 2.5 µM; in test [2], 2 µM. In the same order, the values of `O=C(Nc1ccccc1)Nc1nc2ccccc2o1` are over 25 µM and over 25 µM. `COc1ccc(/C=N/n2c(-c3cc4ccccc4[nH]3)n[nH]c2=S)cc1` had a concentration for half-maximal inhibition (IC50) in test [4] of 0.064 µM. In the case of `CC(=O)/C(=N\Nc1ccccc1)Sc1nnc(-c2cc3ccccc3[nH]2)n1/N=C/c1ccc(C)cc1`, the IC50 came to 2.05 µM in test [5], 0.075 µM in test [4] and 3.23 µM in test [6]. In the case of `CCOC(=O)/C(=N\Nc1ccccc1)Sc1nnc(-c2cc3ccccc3[nH]2)n1/N=C/c1ccc(OC)cc1`, the figures for the half-inhibitory concentration (IC50) in test [5], in test [4] and in test [6] were 0.64 µM, 0.077 µM and 8.46 µM, respectively. Consider `O=C(Nc1ccc(Cl)cc1)Nc1nc2ccccc2[nH]1`, for which the IC50 is 9 µM in test [1] and 20 µM in test [2]. For the compound `CCN(CC)CCNC(=O)c1c(C)[nH]c(/C=C2\C(=O)Nc3ccc(F)cc32)c1C` [SUNITINIB], in test [5], the 50% inhibitory concentration (IC50) amounted to 1.25 µM. As to `CC1=C(C)C(=O)O[C@@H]([C@](C)(O)[C@]2(O)CC[C@@]3(O)[C@@H]4C[C@H]5O[C@]56CC=CC(=O)[C@]6(C)[C@H]4CC[C@]23C)C1` [WITHANOLIDE E], the half-maximal inhibitory concentration (IC50) in test [3] was 1.4 µM.
